Literature values in patent US7494668B2, “Fast water-dispersible domperidone tablets” (Laboratorio Medinfar-Produtos Farmaceuticos, S.A., priority 2004, dated 2009).

Molecule: O=c1[nH]c2ccccc2n1CCCN1CCC(n2c(=O)[nH]c3cc(Cl)ccc32)CC1 [Domperidone, 5-chloro-1-[1-[3-(2-oxo-2,3-dihydro-1H-benzimidazol-1-yl)propyl]piperidine-4-yl]-1,3-dihydro-2H-benzimidazol-2-one]
- solubility in water: practically insoluble in water

Molecule: maleate
- solubility in water: soluble in water
